According to patent US20230265151A1, “GIP/GLP1 CO-AGONIST COMPOUNDS” (priority 2020, published 2023):
Like-named read-outs stand apart in the source and are kept apart here.

Columns and labels:
hGIPR = molecular target: T1, hGIPR (Homo sapiens, UniProt P48546); test: Functional cAMP formation (HTRF) in HEK-293 clonal cells expressing hGIPR, 0.1% bovine casein, without or with 1.0% human serum albumin; assay type: cell-based; conditions: for Emax: 37° C., 0.1% bovine casein, arithmetic mean; for EC50: cAMP, incubated at 37° C., 0.1% bovine casein (no human serum albumin), geometric mean
T1 construct: expressed in transfected cells
T1 sequence (P48546 22-466): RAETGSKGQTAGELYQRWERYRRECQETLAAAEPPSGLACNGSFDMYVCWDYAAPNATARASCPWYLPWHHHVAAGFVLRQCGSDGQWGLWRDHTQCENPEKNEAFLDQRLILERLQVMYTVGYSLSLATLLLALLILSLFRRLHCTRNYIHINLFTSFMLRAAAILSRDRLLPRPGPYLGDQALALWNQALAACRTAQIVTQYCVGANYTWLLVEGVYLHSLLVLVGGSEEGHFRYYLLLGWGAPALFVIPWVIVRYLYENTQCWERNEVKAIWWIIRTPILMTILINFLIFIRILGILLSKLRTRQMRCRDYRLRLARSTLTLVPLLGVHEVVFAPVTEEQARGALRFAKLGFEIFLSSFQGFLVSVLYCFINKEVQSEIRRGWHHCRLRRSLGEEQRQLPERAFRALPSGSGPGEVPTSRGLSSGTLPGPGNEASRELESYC
Description: (§1) After a 30-min incubation at 37° C., the resulting increase in intracellular cAMP is quantitatively determined using a CisBio cAMP Dynamic 2 HTRF Assay Kit (62AM4PEJ). Briefly, cAMP levels within the cell are detected by adding the cAMP-d2 conjugate in cell lysis buffer (10 µL) followed by the antibody anti-cAMP-Eu^3+-Cryptate, also in cell lysis buffer (10 µL). The resulting competitive assay is incubated for at least 60 min at room temperature, and then is detected using a PerkinElmer Envision® instrument with excitation at 320 nm and emission at 665 nm and 620 nm. Envision units (emission at 665 nm/620 nm* 10,000) are inversely proportional to the amount of cAMP present and are converted to nM cAMP per well us-ing a cAMP standard curve. […] A relative EC50 value and percent top (Emax) are derived by non-linear regression analysis using the percent maximal response vs. the concentration of peptide added, fitted to a four-parameter logistic equation.

hGCGR = molecular target: T2, hGCGR (Homo sapiens, UniProt P47871); test: Functional cAMP formation (HTRF) in HEK-293 clonal cells expressing hGCGR, 0.1% bovine casein, without or with 1.0% human serum albumin; assay type: cell-based; conditions: cAMP, incubated at 37° C., 0.1% bovine casein (no human serum albumin), geometric mean
T2 construct: expressed in transfected cells
T2 sequence (P47871 26-477): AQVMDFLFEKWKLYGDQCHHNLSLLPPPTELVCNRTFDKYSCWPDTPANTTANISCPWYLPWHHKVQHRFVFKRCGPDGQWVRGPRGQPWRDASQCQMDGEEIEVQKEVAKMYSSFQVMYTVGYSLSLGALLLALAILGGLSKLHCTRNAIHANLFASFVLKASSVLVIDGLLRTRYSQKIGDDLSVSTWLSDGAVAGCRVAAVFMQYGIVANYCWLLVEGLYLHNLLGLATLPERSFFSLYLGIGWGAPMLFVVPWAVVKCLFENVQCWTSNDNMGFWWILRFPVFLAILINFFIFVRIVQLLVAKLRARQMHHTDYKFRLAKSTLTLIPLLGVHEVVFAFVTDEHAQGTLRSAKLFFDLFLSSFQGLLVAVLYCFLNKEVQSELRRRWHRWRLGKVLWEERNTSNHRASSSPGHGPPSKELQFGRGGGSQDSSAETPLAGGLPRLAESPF
Description: as §1

[1] = HEK293, percent of maximal response to GIP(1-42)NH2, read-out: hGIPR Emax, % ± SEM
[2] = read-out: hGCGR EC50, nM (SEM, n)
[3] = read-out: hGIPR EC50, nM (SEM, n)

`CC[C@H](C)[C@H](NC(=O)[C@H](CC(C)C)NC(=O)[C@](C)(Cc1ccc(O)cc1)NC(=O)[C@@H](CCC(=O)O)NC(=O)[C@@H](NC(=O)[C@H](Cc1ccccc1)NC(=O)[C@H](CCC(=O)O)NC(=O)C(C)(C)NC(=O)[C@H](CCC(N)=O)NC(=O)[C@H](C)NC(=O)[C@H](CCCCNC(=O)COCCOCCNC(=O)COCCOCCNC(=O)CC[C@H](NC(=O)CCCCCCCCCCCCC(=O)O)C(=O)O)NC(=O)CNC(=O)[C@H](CC(=O)O)NC(=O)[C@H](CC(C)C)NC(=O)[C@](C)(CC(C)C)NC(=O)[C@@H](NC(=O)[C@H](CO)NC(=O)[C@H](Cc1ccncc1)NC(=O)[C@H](CC(=O)O)NC(=O)[C@H](CO)NC(=O)[C@@H](NC(=O)[C@](C)(Cc1ccccc1F)NC(=O)[C@@H](NC(=O)CNC(=O)[C@H](CCC(=O)O)NC(=O)C(C)(C)NC(=O)[C@@H](N)Cc1ccc(O)cc1)[C@@H](C)O)[C@@H](C)O)[C@@H](C)CC)[C@@H](C)CC)C(=O)N[C@@H](CCC(=O)O)C(=O)NCC(=O)NCC(=O)N[C@@H](CCCCNC(=O)COCCOCCNC(=O)COCCOCCNC(=O)CC[C@H](NC(=O)CCCCCCCCCCCCC(=O)O)C(=O)O)C(=O)N[C@@H](CO)C(=O)N[C@@H](CO)C(=O)NCC(=O)N[C@@H](C)C(=O)N1CCC[C@H]1C(=O)N1CCC[C@H]1C(=O)N1CCC[C@H]1C(=O)N[C@@H](CO)C(N)=O` [Example 101] was tested, and the Emax (hGIPR; [1]) was 92.1% and the EC50 (hGCGR; [2]) was over 9950 nM.

With `CC[C@H](C)[C@H](NC(=O)[C@H](CCCN)NC(=O)[C@H](CC(=O)O)NC(=O)[C@H](CC(C)C)NC(=O)[C@](C)(CC(C)C)NC(=O)[C@@H](NC(=O)[C@H](CO)NC(=O)[C@H](CCCCNC(=O)COCCOCCNC(=O)COCCOCCNC(=O)CC[C@H](NC(=O)CCCCCCCCCCCCC(=O)O)C(=O)O)NC(=O)[C@H](CC(=O)O)NC(=O)[C@H](CO)NC(=O)[C@@H](NC(=O)[C@](C)(Cc1ccccc1F)NC(=O)[C@@H](NC(=O)CNC(=O)[C@H](CCC(=O)O)NC(=O)C(C)(C)NC(=O)[C@@H](N)Cc1ccc(O)cc1)[C@@H](C)O)[C@@H](C)O)[C@@H](C)CC)C(=O)N[C@@H](C)C(=O)N[C@@H](CCC(N)=O)C(=O)NC(C)(C)C(=O)N[C@@H](CCC(=O)O)C(=O)N[C@@H](Cc1ccccc1)C(=O)N[C@H](C(=O)N[C@@H](CCCCNC(=O)COCCOCCNC(=O)COCCOCCNC(=O)CC[C@H](NC(=O)CCCCCCCCCCCCC(=O)O)C(=O)O)C(=O)N[C@@](C)(Cc1ccc(O)cc1)C(=O)N[C@@H](CC(C)C)C(=O)N[C@H](C(=O)N[C@@H](CCC(=O)O)C(=O)NCC(=O)NCC(=O)N1CCC[C@H]1C(=O)N[C@@H](CO)C(=O)N[C@@H](CO)C(=O)NCC(=O)N[C@@H](C)C(=O)N1CCC[C@H]1C(=O)N1CCC[C@H]1C(=O)N1CCC[C@H]1C(=O)N[C@@H](CO)C(N)=O)[C@@H](C)CC)[C@@H](C)CC` [Example 106] the Emax (hGIPR; HEK293, read-out: hGIPR Emax, % ± SEM, percent of maximal response to GIP(1-42)NH2) was 98.7 ± 3.32%, the EC50 (hGIPR; hGIPR EC50, nM (SEM, n)) was 0.0385 nM and the EC50 (hGCGR; hGCGR EC50, nM (SEM, n)) was over 9950 nM.

`CC[C@H](C)[C@H](NC(=O)[C@H](CCCN)NC(=O)[C@H](CC(=O)O)NC(=O)[C@H](CC(C)C)NC(=O)[C@](C)(CC(C)C)NC(=O)[C@@H](NC(=O)[C@H](CO)NC(=O)[C@H](CCCCNC(=O)COCCOCCNC(=O)COCCOCCNC(=O)CC[C@H](NC(=O)CCCCCCCCCCCCC(=O)O)C(=O)O)NC(=O)[C@H](CC(=O)O)NC(=O)[C@H](CO)NC(=O)[C@@H](NC(=O)[C@](C)(Cc1ccccc1F)NC(=O)[C@@H](NC(=O)CNC(=O)[C@H](CCC(=O)O)NC(=O)C(C)(C)NC(=O)[C@@H](N)Cc1ccc(O)cc1)[C@@H](C)O)[C@@H](C)O)[C@@H](C)CC)C(=O)N[C@@H](C)C(=O)N[C@@H](CCC(N)=O)C(=O)NC(C)(C)C(=O)N[C@@H](CCCCNC(=O)COCCOCCNC(=O)COCCOCCNC(=O)CC[C@H](NC(=O)CCCCCCCCCCCCC(=O)O)C(=O)O)C(=O)N[C@@](C)(Cc1ccccc1)C(=O)N[C@H](C(=O)N[C@H](CCC(=O)O)C(=O)N[C@@](C)(Cc1ccc(O)cc1)C(=O)N[C@@H](CC(C)C)C(=O)N[C@H](C(=O)N[C@@H](CCC(=O)O)C(=O)NCC(=O)NCC(=O)N1CCC[C@H]1C(=O)N[C@@H](CO)C(=O)N[C@@H](CO)C(=O)NCC(=O)N[C@@H](C)C(=O)N1CCC[C@H]1C(=O)N1CCC[C@H]1C(=O)N1CCC[C@H]1C(=O)N[C@@H](CO)C(N)=O)[C@@H](C)CC)[C@@H](C)CC` [Example 109] was tested, and the Emax (hGIPR; [1]) was 84.8%, the EC50 (hGIPR; [3]) was 0.0236 nM and the EC50 (hGCGR; [2]) was over 9950 nM.

Work on `CC[C@H](C)[C@H](NC(=O)[C@H](CCCN)NC(=O)[C@H](CC(=O)O)NC(=O)[C@H](CC(C)C)NC(=O)[C@](C)(CC(C)C)NC(=O)[C@@H](NC(=O)[C@H](CO)NC(=O)[C@H](CCCCNC(=O)COCCOCCNC(=O)COCCOCCNC(=O)CC[C@H](NC(=O)CCCCCCCCCCCCC(=O)O)C(=O)O)NC(=O)[C@H](CC(=O)O)NC(=O)[C@H](CO)NC(=O)[C@@H](NC(=O)[C@](C)(Cc1ccccc1F)NC(=O)[C@@H](NC(=O)CNC(=O)[C@H](CCC(=O)O)NC(=O)C(C)(C)NC(=O)[C@@H](N)Cc1ccc(O)cc1)[C@@H](C)O)[C@@H](C)O)[C@@H](C)CC)C(=O)N[C@@H](C)C(=O)N[C@@H](CCC(N)=O)C(=O)NC(C)(C)C(=O)N[C@@H](CCC(=O)O)C(=O)N[C@@](C)(Cc1ccccc1)C(=O)N[C@H](C(=O)N[C@H](CCC(=O)O)C(=O)N[C@@](C)(Cc1ccc(O)cc1)C(=O)N[C@@H](CC(C)C)C(=O)N[C@H](C(=O)N[C@@H](CCC(=O)O)C(=O)NCC(=O)NCC(=O)N[C@@H](CCCCNC(=O)COCCOCCNC(=O)COCCOCCNC(=O)CC[C@H](NC(=O)CCCCCCCCCCCCC(=O)O)C(=O)O)C(=O)N[C@@H](CO)C(=O)N[C@@H](CO)C(=O)NCC(=O)N[C@@H](C)C(=O)N1CCC[C@H]1C(=O)N1CCC[C@H]1C(=O)N1CCC[C@H]1C(=O)N[C@@H](CO)C(N)=O)[C@@H](C)CC)[C@@H](C)CC` [Example 112] yielded an Emax (hGIPR; [1]) of 93.6%, an EC50 (hGIPR; [3]) of 0.0229 nM and an EC50 (hGCGR; [2]) of over 9950 nM.

Work on `CC[C@H](C)[C@H](NC(=O)[C@H](CC(C)C)NC(=O)[C@](C)(Cc1ccc(O)cc1)NC(=O)[C@@H](CCC(=O)O)NC(=O)[C@@H](NC(=O)[C@H](Cc1ccccc1)NC(=O)[C@H](CCC(=O)O)NC(=O)C(C)(C)NC(=O)[C@H](CCC(N)=O)NC(=O)[C@H](C)NC(=O)[C@H](CCCCNC(=O)COCCOCCNC(=O)COCCOCCNC(=O)CC[C@H](NC(=O)CCCCCCOc1ccc(C(=O)O)cc1)C(=O)O)NC(=O)[C@H](CCCN)NC(=O)[C@H](CC(=O)O)NC(=O)[C@H](CC(C)C)NC(=O)[C@](C)(CC(C)C)NC(=O)[C@@H](NC(=O)[C@H](CO)NC(=O)[C@H](Cc1ccncc1)NC(=O)[C@H](CC(=O)O)NC(=O)[C@H](CO)NC(=O)[C@@H](NC(=O)[C@](C)(Cc1ccccc1F)NC(=O)[C@@H](NC(=O)CNC(=O)[C@H](CCC(=O)O)NC(=O)C(C)(C)NC(=O)[C@@H](N)Cc1ccc(O)cc1)[C@@H](C)O)[C@@H](C)O)[C@@H](C)CC)[C@@H](C)CC)C(=O)N[C@@H](CCC(=O)O)C(=O)NCC(=O)NCC(=O)N[C@@H](CCCCNC(=O)COCCOCCNC(=O)COCCOCCNC(=O)CC[C@H](NC(=O)CCCCCCOc1ccc(C(=O)O)cc1)C(=O)O)C(=O)N[C@@H](CO)C(=O)N[C@@H](CO)C(=O)NCC(=O)N[C@@H](C)C(=O)N1CCC[C@H]1C(=O)N1CCC[C@H]1C(=O)N1CCC[C@H]1C(=O)N[C@@H](CO)C(N)=O` [Example 125] yielded an Emax (hGIPR; [1]) of 94.4%, an EC50 (hGIPR; [3]) of 0.0547 nM and an EC50 (hGCGR; [2]) of over 9950 nM.
